Data taken from PubChem BioAssay AID264 (DTP/NCI, 2004).
Values joined by “and” are separate entries in the source; they are usually repeats but may differ in a detail not shown here. Equal values may be shown once. Records with an inconclusive call do not appear.

System: nude mice, LX-1 lung xenograft intrarenal, tumor weight T/C
Assay: NCI In Vivo Anticancer Drug Screen. Data for tumor model Human Lung LX-1 Xenograft (intrarenal inoculation) in NU/NU Swiss (nude) mice
Details: endpoint: mean tumor weight change, higher = larger tumour
Method in brief: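 Compound-treated mice carrying transplanted tumors were compared with vehicle-treated controls. Tumor size was the measured end point, and the value is the treated-group measurement divided by the control-group measurement (T/C).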

[1] = dose: 100.0 mg/kg/injection, schedule: Q01DX010 (sc), vehicle: saline
[2] = dose: 200.0 mg/kg/injection, schedule: Q01DX010 (sc), vehicle: saline
[3] = dose: 400.0 mg/kg/injection, schedule: Q01DX010 (sc), vehicle: saline
[4] = dose: 800.0 mg/kg/injection, schedule: Q01DX010 (sc), vehicle: saline
[5] = dose: 300.0 mg/kg/injection, schedule: Q04DX003 (sc), vehicle: saline with Tween-80
[6] = dose: 600.0 mg/kg/injection, schedule: Q04DX003 (sc), vehicle: saline with Tween-80
[7] = dose: 1200.0 mg/kg/injection, schedule: Q04DX003 (sc), vehicle: saline with Tween-80
[8] = dose: 2400.0 mg/kg/injection, schedule: Q04DX003 (sc), vehicle: saline with Tween-80
[9] = dose: 300.0 mg/kg/injection, schedule: Q04DX003 (sc), vehicle: Klucel (hydroxypropylcellulose) (HPC)
[10] = dose: 600.0 mg/kg/injection, schedule: Q04DX003 (sc), vehicle: Klucel (hydroxypropylcellulose) (HPC)
[11] = dose: 1200.0 mg/kg/injection, schedule: Q04DX003 (sc), vehicle: Klucel (hydroxypropylcellulose) (HPC)

With `O=C1N[C@@H]([C@H]2CC[C@H](Cl)CN2)C(=O)N[C@H]1[C@H]1CC[C@H](Cl)CN1` the T/C (dose: 0.63 mg/kg/injection, schedule: Q01DX010 (sc), vehicle: water) was 124 % of control, the T/C (dose: 1.25 mg/kg/injection, schedule: Q01DX010 (sc), vehicle: water) was 98 % of control and the T/C (dose: 5.0 mg/kg/injection, schedule: Q01DX010 (sc), vehicle: water) was 22 % of control. The T/C (dose: 5.0 mg/kg/injection, schedule: Q04DX003 (sc), vehicle: water) was 70 % of control and the T/C (dose: 10.0 mg/kg/injection, schedule: Q04DX003 (sc), vehicle: water) was 58 % of control.

In the case of `CNC(=O)OCc1c(COC(=O)NC)c(C)n(-c2ccc(OC)cc2)c1C`, the T/C (dose: 25.0 mg/kg/injection, schedule: Q01DX010 (sc), vehicle: Klucel (hydroxypropylcellulose) (HPC)) is reported as 51 % of control, the T/C (dose: 50.0 mg/kg/injection, schedule: Q01DX010 (sc), vehicle: Klucel (hydroxypropylcellulose) (HPC)) is reported as 59 % of control and 63 % of control and the T/C (dose: 50.0 mg/kg/injection, schedule: Q04DX003 (sc), vehicle: Klucel (hydroxypropylcellulose) (HPC)) is reported as 38 % of control. For the same compound, the T/C (dose: 800.0 mg/kg/injection, schedule: Q04DX003 (sc), vehicle: Klucel (hydroxypropylcellulose) (HPC)) was 87 % of control.

`CCCC(=O)O` was tested, and the T/C [1] was 103 % of control, the T/C [2] was 77 % of control and the T/C [3] was 71 % of control.

For `O=C(O)C(CSC(c1ccccc1)(c1ccccc1)c1ccccc1)N=Cc1cccs1` (stereo not given), the T/C (dose: 100.0 mg/kg/injection, schedule: Q04DX003 (sc), vehicle: suspension in saline) was 86 % of control, the T/C (dose: 200.0 mg/kg/injection, schedule: Q04DX003 (sc), vehicle: suspension in saline) was 108 % of control and the T/C (dose: 400.0 mg/kg/injection, schedule: Q04DX003 (sc), vehicle: suspension in saline) was 55 % of control.

In the case of `O=C1OC(C(O)CO)C(O)=C1O` (stereo not given), the T/C [3] is reported as 205 % of control, the T/C [4] is reported as 110 % of control and the T/C (dose: 1600.0 mg/kg/injection, schedule: Q01DX010 (sc), vehicle: saline) is reported as 153 % of control.

For `Cn1ccc(=Nc2ccc(NC(=O)c3ccc(N=c4ccn(C)c5ccc([N+](=O)[O-])cc45)cc3[N+](=O)[O-])cc2)cc1`, the T/C [5] was 93 % of control, the T/C [6] was 75 % of control and the T/C [7] was 86 % of control. For the same compound, the T/C [8] was 83 % of control.

In the case of `CN(CCN(C)C(=O)CCOS(C)(=O)=O)C(=O)CCOS(C)(=O)=O`, the T/C (dose: 150.0 mg/kg/injection, schedule: Q04DX003 (sc), vehicle: saline) is reported as 58 % of control and the T/C (dose: 300.0 mg/kg/injection, schedule: Q04DX003 (sc), vehicle: saline) is reported as 27 % of control.

In the case of `CC[C@@]1(O)C[C@H](OC2CC(N(C)C)C(OC3CC(O)C(OC4CCC(=O)C(C)O4)C(C)O3)C(C)O2)c2c(cc3c(c2O)C(=O)c2c(O)ccc(O)c2C3=O)[C@H]1C(=O)OC` (stereo not given in full), the T/C (dose: 3.0 mg/kg/injection, schedule: Q04DX003 (sc), vehicle: water) is reported as 51 % of control and the T/C (dose: 6.0 mg/kg/injection, schedule: Q04DX003 (sc), vehicle: water) is reported as 79 % of control.

For `N=C1CCCS1`, the T/C (dose: 18.75 mg/kg/injection, schedule: Q04DX003 (sc), vehicle: saline) was 121 % of control, the T/C (dose: 37.5 mg/kg/injection, schedule: Q04DX003 (sc), vehicle: saline) was 87 % of control and the T/C (dose: 75.0 mg/kg/injection, schedule: Q04DX003 (sc), vehicle: saline) was 113 % of control.

`COc1cc2c(cc1O)N=C[C@@H]1CCC(O)N1C2=O` (mixture of isomers) was tested, and the T/C (dose: 4.0 mg/kg/injection, schedule: Q01DX010 (sc), vehicle: saline) was 213 % of control.

In the case of `CC1=C[S+](c2ccccc2)c2cccc3cc4ccccc4c1c23` (stereo not given), the T/C (dose: 2.0 mg/kg/injection, schedule: Q04DX003 (sc), vehicle: saline with Tween-80) is reported as 102 % of control.

`Cc1cc(N/N=C/c2ccccn2)nc2ccccc12` was tested, and the T/C (dose: 150.0 mg/kg/injection, schedule: Q04DX003 (sc), vehicle: Klucel (hydroxypropylcellulose) (HPC)) was 89 % of control, the T/C [9] was 103 % of control and the T/C [10] was 115 % of control. The T/C [11] was 98 % of control.

`CC[n+]1c(-c2ccccc2)c2cc(N)ccc2c2ccc(N)cc21` was tested, and the T/C (dose: 15.0 mg/kg/injection, schedule: Q04DX003 (sc), vehicle: saline) was 80 % of control, the T/C (dose: 30.0 mg/kg/injection, schedule: Q04DX003 (sc), vehicle: saline) was 81 % of control and the T/C (dose: 60.0 mg/kg/injection, schedule: Q04DX003 (sc), vehicle: saline) was 33 % of control.

In the case of `COc1cc(Cl)ccc1C`, the T/C [5] is reported as 116 % of control, the T/C [6] is reported as 88 % of control and the T/C [7] is reported as 100 % of control. For the same compound, the T/C [8] was 121 % of control.

With `CC1OC1C(=O)C1(O)C(C)C(O)C23OC2(C(O)c2c(O)cccc2C3=O)C1O` (stereo not given) the T/C (dose: 6.0 mg/kg/injection, schedule: Q04DX003 (sc), vehicle: Klucel (hydroxypropylcellulose) (HPC)) was 83 % of control, the T/C (dose: 12.0 mg/kg/injection, schedule: Q04DX003 (sc), vehicle: Klucel (hydroxypropylcellulose) (HPC)) was 98 % of control and the T/C (dose: 24.0 mg/kg/injection, schedule: Q04DX003 (sc), vehicle: Klucel (hydroxypropylcellulose) (HPC)) was 110 % of control. For the same compound, the T/C (dose: 48.0 mg/kg/injection, schedule: Q04DX003 (sc), vehicle: Klucel (hydroxypropylcellulose) (HPC)) was 41 % of control.

For `CNC(=O)OCc1c(COC(=O)NC)c(-c2ccccc2)n(C)c1-c1ccccc1`, the T/C (dose: 50.0 mg/kg/injection, schedule: Q04DX003 (sc), vehicle: distilled water + Tween-80) was 88 % of control, the T/C (dose: 100.0 mg/kg/injection, schedule: Q04DX003 (sc), vehicle: distilled water + Tween-80) was 182 % of control and the T/C (dose: 200.0 mg/kg/injection, schedule: Q04DX003 (sc), vehicle: distilled water + Tween-80) was 50 % of control. For the same compound, the T/C (dose: 800.0 mg/kg/injection, schedule: Q04DX003 (sc), vehicle: distilled water + Tween-80) was 52 % of control and the T/C (dose: 1600.0 mg/kg/injection, schedule: Q04DX003 (sc), vehicle: distilled water + Tween-80) was 57 % of control.

For `Nc1ncnc2c1ccn2C1OC(CO)C(O)C1O` (stereo not given), the T/C (dose: 1.0 mg/kg/injection, schedule: Q01DX010 (sc), vehicle: Klucel (hydroxypropylcellulose) (HPC)) was 85 % of control, the T/C (dose: 2.0 mg/kg/injection, schedule: Q01DX010 (sc), vehicle: Klucel (hydroxypropylcellulose) (HPC)) was 101 % of control and the T/C (dose: 4.0 mg/kg/injection, schedule: Q01DX010 (sc), vehicle: Klucel (hydroxypropylcellulose) (HPC)) was 53 % of control.

With `CO[C@H]1Nc2c(ccc(C)c2O)C(=O)N2C=C(/C=C/C(N)=O)C[C@@H]12` the T/C (dose: 0.25 mg/kg/injection, schedule: Q04DX003 (sc), vehicle: saline + alcohol) was 48 % of control, the T/C (dose: 0.5 mg/kg/injection, schedule: Q04DX003 (sc), vehicle: saline + alcohol) was 75 % of control and the T/C (dose: 1.0 mg/kg/injection, schedule: Q04DX003 (sc), vehicle: saline + alcohol) was 115 % of control. For the same compound, the T/C (dose: 2.0 mg/kg/injection, schedule: Q04DX003 (sc), vehicle: saline + alcohol) was 39 % of control.

`CN=C(N)N/N=C(\C)c1ccc2c(c1)Cc1ccccc1-2` was tested, and the T/C (dose: 150.0 mg/kg/injection, schedule: Q04DX003 (sc), vehicle: saline with Tween-80) was 152 % of control, the T/C [5] was 117 % of control and the T/C [6] was 106 % of control.

With `OC(CCl)CN1CC[N+]2(CC1)CC[N+]1(CCN(CC(O)CCl)CC1)CC2` (stereo not given) the T/C (dose: 128.0 mg/kg/injection, schedule: Q01DX010 (sc), vehicle: water) was 78 % of control and the T/C (dose: 256.0 mg/kg/injection, schedule: Q01DX010 (sc), vehicle: water) was 59 % of control.

In the case of `CCC1OCC(C(Cl)CCl)O1` (stereo not given), the T/C [9] is reported as 115 % of control, the T/C [10] is reported as 88 % of control and the T/C [11] is reported as 26 % of control.

With `OCC1OC(n2cnc3c(Cl)ncnc32)C(O)C1O` (stereo not given) the T/C [1] was 74 % of control, the T/C [2] was 96 % of control and 103 % of control and the T/C [3] was 80 % of control and 99 % of control. For the same compound, the T/C [4] was 112 % of control.

For `CCN=C=NCCCN(C)C`, the T/C (dose: 25.0 mg/kg/injection, schedule: Q04DX003 (sc), vehicle: saline) was 99 % of control, the T/C (dose: 50.0 mg/kg/injection, schedule: Q04DX003 (sc), vehicle: saline) was 102 % of control and the T/C (dose: 100.0 mg/kg/injection, schedule: Q04DX003 (sc), vehicle: saline) was 84 % of control.

`O=C(N/N=C\c1cc(Br)cc(Br)c1O)N/N=C/c1cc(Br)cc(Br)c1O` was tested, and the T/C (dose: 50.0 mg/kg/injection, schedule: Q01DX010 (sc), vehicle: saline with Tween-80) was 373 % of control and the T/C (dose: 800.0 mg/kg/injection, schedule: Q01DX010 (sc), vehicle: saline with Tween-80) was 67 % of control.
